Counter-ions that a name gives are not always drawn.
Experiments:
[1] = molecular target: T1, HCV polymerase (NS5B) type 1a (Hepatitis C virus genotype 1a, UniProt P26664); experiment: Assay of enzyme (HCV polymerase) inhibitory activity, type 1a enzyme; type: biochemical, HCV type 1a (cloned from the blood of patients); conditions: HCV polymerase inhibitory activity (IC50), 1a, type 1a enzyme 1.5 μg/ml, 25° C., 60 min
T1 construct: made in house; host or cells: Escherichia coli (by the 'similar method' of the 1b enzyme)
Summary of the method: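 Reactions ran 60 min at 25° C in 20 mM Tris-HCl pH 7.5, 5 mM MgCl2, 50 mM NaCl, holding genotype 1a NS5B (1.5 μg/ml, Δ47 C-terminus, 6His), substrate RNA 5 μg/ml, UTP 2 μM with tritiated UTP and other NTPs 50 μM. IC50 derived from incorporated radiolabel in filter-trapped RNA relative to uninhibited reaction.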

[2] = molecular target: T2, HCV polymerase (NS5B) type 1b (Hepatitis C virus genotype 1b, UniProt P26663); experiment: Assay of enzyme (HCV polymerase) inhibitory activity, type 1b enzyme; type: biochemical, HCV BK strain (type 1b); conditions: HCV polymerase inhibitory activity (IC50), 1b, type 1b enzyme 0.5 μg/ml, 25° C., 60 min
T2 construct: a region encoding NS5B (J Virol 1991 March, 65(3), 1105-13, 544 amino acids after deletion of 47 amino acids on the C-terminal); 6xHis (C); made in house; host or cells: Escherichia coli
Summary of the method: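 IC50 derived from [3H]UTP incorporation into TCA-insoluble RNA, compared with and without test compound. Reaction (25 °C, 60 min, Tris pH 7.5, 5 mM MgCl2): E. coli-expressed 1b NS5B Δ47 with His tag at 0.5 μg/ml, 5 μg/ml run-off substrate RNA, ATP/GTP/CTP 50 μM, UTP 2 μM.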

Row | Structure (SMILES) | IC50 [1] [nM] | IC50 [2] [nM]
1 | Cc1nc(N2CCN(S(=O)(=O)c3ccc(OC(F)(F)F)cc3)[C@@H](C(=O)NCc3ccc(C(C)C)cc3)C2)sc1C(=O)N[C@@H](C)C(=O)O [Example 370, (S)-2-({2-[(R)-3-(4-isopropyl-benzylcarbamoyl)-4-(4-trifluoromethoxy-benzenesulfonyl)-piperazin-1-yl]-4-methyl-thiazole-5-carbonyl}-amino)-propionic acid] | 100 to 1000 | < 100
2 | Cc1nc(N2CCN(S(=O)(=O)c3ccc(C(F)(F)F)cc3)[C@@H](C(=O)NCc3ccc(C(C)C)cc3)C2)oc1C(=O)O [Example 371, 2-[(R)-3-(4-isopropyl-benzylcarbamoyl)-4-(4-trifluoromethyl-benzenesulfonyl)-piperazin-1-yl]-4-methyl-oxazole-5-carboxylic acid trifluoroacetate] | 100 to 1000 | 100 to 1000
3 | CC(C)c1ccc(CNC(=O)[C@H]2CN(c3nc(Br)n[nH]3)CCN2S(=O)(=O)c2ccc(C(F)(F)F)cc2)cc1 [Example 372, (R)-4-(5-bromo-2H-[1,2,4]triazol-3-yl)-1-(4-trifluoromethyl-benzenesulfonyl)-piperazine-2-carboxylic acid 4-isopropyl-benzylamide] | 100 to 1000 | < 100
4 | CC(C)c1ccc(CNC(=O)[C@H]2CN(c3ncn[nH]3)CCN2S(=O)(=O)c2ccc(C(F)(F)F)cc2)cc1 [Example 373, (R)-4-(2H-[1,2,4]triazol-3-yl)-1-(4-trifluoromethyl-benzenesulfonyl)-piperazine-2-carboxylic acid 4-isopropyl-benzylamide] | > 1000 | 100 to 1000
5 | CCCc1ccc(CNC(=O)[C@H]2CN(c3cnc(C(=O)O)cn3)CCN2S(=O)(=O)c2ccc(OC(F)(F)F)cc2)cc1 [Example 374, (R)-3-(4-propyl-benzylcarbamoyl)-4-(4-trifluoromethoxy-benzenesulfonyl)-3,4,5,6-tetrahydro-2H-[1,2′]bipyrazinyl-5′-carboxylic acid] | < 100 | < 100
6 | CCCc1ncc(S(=O)(=O)N2CCN(C(C)=O)C[C@@H]2C(=O)NCc2ccc(C(C)C)cc2)s1 [Example 375, (R)-4-acetyl-1-(2-propyl-thiazole-5-sulfonyl)-piperazine-2-carboxylic acid 4-isopropyl-benzylamide] | < 100 | < 100
7 | CC(C)c1ccc(CNC(=O)[C@H]2CN(c3ccc(C(=O)O)nn3)CCN2S(=O)(=O)c2ccc(C(F)(F)F)cc2)cc1 [Example 376, 6-[(R)-3-(4-isopropyl-benzylcarbamoyl)-4-(4-trifluoromethyl-benzenesulfonyl)-piperazin-1-yl]-pyridazine-3-carboxylic acid] | < 100 | < 100
8 | CC(C)c1ccc(CNC(=O)[C@H]2CN(c3cnc(C(N)=O)cn3)CCN2S(=O)(=O)c2ccc(C(F)(F)F)cc2)cc1 [Example 377, (R)-4-(4-trifluoromethyl-benzenesulfonyl)-3,4,5,6-tetrahydro-2H-[1,2′]bipyrazinyl-3,5′-dicarboxylic acid 5′-amide 3-(4-isopropyl-benzylamide)] | < 100 | < 100
9 | CCCc1ccc(CNC(=O)[C@H]2CN(c3nc(C)c(C(=O)O)s3)CCN2S(=O)(=O)c2ccc(OC(F)(F)F)cc2)cc1 [Example 378, 4-methyl-2-[(R)-3-(4-propyl-benzylcarbamoyl)-4-(4-trifluoromethoxy-benzenesulfonyl)-piperazin-1-yl]-thiazole-5-carboxylic acid] | < 100 | < 100
10 | Cc1nc(N2CCN(S(=O)(=O)c3ccc(OC(F)(F)F)cc3)[C@@H](C(=O)NCc3ccc(N(C)C)cc3)C2)sc1C(=O)O [Example 379, 2-[(R)-3-(4-dimethylamino-benzylcarbamoyl)-4-(4-trifluoromethoxy-benzenesulfonyl)-piperazin-1-yl]-4-methyl-thiazole-5-carboxylic acid hydrochloride] | < 100 | < 100
11 | CCCc1ccc(S(=O)(=O)N2CCN(c3nc(C)c(C(=O)O)s3)C[C@@H]2C(=O)NCc2ccc(C(C)C)cc2)s1 [Example 380, 2-[(R)-3-(4-isopropyl-benzylcarbamoyl)-4-(5-propyl-thiophene-2-sulfonyl)-piperazin-1-yl]-4-methyl-thiazole-5-carboxylic acid] | < 100 | < 100
12 | Cc1nc(N2CCN(S(=O)(=O)c3ccc4c(c3)CCCCC4)[C@@H](C(=O)NCc3ccc(C(C)C)cc3)C2)sc1C(=O)O [Example 381, 2-[(R)-3-(4-isopropyl-benzylcarbamoyl)-4-(6,7,8,9-tetrahydro-5H-benzocycloheptene-2-sulfonyl)-piperazin-1-yl]-4-methyl-thiazole-5-carboxylic acid] | < 100 | < 100
13 | CC(C)c1ccc(CNC(=O)[C@H]2CN(c3nc(CCC(=O)O)cs3)CCN2S(=O)(=O)c2ccc(OC(F)(F)F)cc2)cc1 [Example 382, 3-{2-[(R)-3-(4-isopropyl-benzylcarbamoyl)-4-(4-trifluoromethoxy-benzenesulfonyl)-piperazin-1-yl]-thiazol-4-yl}-propionic acid] | 100 to 1000 | 100 to 1000
14 | Cc1nc(N2CCN(S(=O)(=O)c3ccc(OC(F)(F)F)cc3)[C@@H](C(=O)NCc3ccc(C4CC4)cc3)C2)sc1C(=O)O [Example 383, 2-[(R)-3-(4-cyclopropyl-benzylcarbamoyl)-4-(4-trifluoromethoxy-benzenesulfonyl)-piperazin-1-yl]-4-methyl-thiazole-5-carboxylic acid] | < 100 | < 100
15 | CC(C)c1ccc(CNC(=O)[C@H]2CN(C(=O)CNCC(=O)O)CCN2S(=O)(=O)c2ccc(C(F)(F)F)cc2)cc1 [Example 384, {2-[(R)-3-(4-isopropyl-benzylcarbamoyl)-4-(4-trifluoromethyl-benzenesulfonyl)-piperazin-1-yl]-2-oxo-ethylamino}-acetic acid hydrochloride] | 100 to 1000 | 100 to 1000
16 | CC(C)c1ccc(CNC(=O)[C@H]2CN(c3cnc(C(=O)O)cn3)CCN2S(=O)(=O)c2ccc(OC(F)(F)F)cc2)cc1 [Example 385, (R)-3-(4-isopropyl-benzylcarbamoyl)-4-(4-trifluoromethoxy-benzenesulfonyl)-3,4,5,6-tetrahydro-2H-[1,2′]bipyrazinyl-5′-carboxylic acid] | < 100 | < 100
17 | O=C(O)c1cnc(N2CCN(S(=O)(=O)c3ccc(OC(F)(F)F)cc3)[C@@H](C(=O)NCc3ccc(OC(F)(F)F)cc3)C2)cn1 [Example 386, (R)-4-(4-trifluoromethoxy-benzenesulfonyl)-3-(4-trifluoromethoxy-benzylcarbamoyl)-3,4,5,6-tetrahydro-2H-[1,2′]bipyrazinyl-5′-carboxylic acid] | < 100 | < 100
18 | Cc1nc(N2CCN(S(=O)(=O)c3ccc(OC(F)(F)F)cc3)[C@@H](C(=O)NCc3ccc(N(C)C)nc3)C2)sc1C(=O)O [Example 387, 2-[(R)-3-[(6-dimethylamino-pyridin-3-ylmethyl)-carbamoyl]-4-(4-trifluoromethoxy-benzenesulfonyl)-piperazin-1-yl]-4-methyl-thiazole-5-carboxylic acid] | < 100 | < 100
19 | CCCc1ccc(CNC(=O)[C@H]2CN(c3nc(C)c(C(=O)O)s3)CCN2S(=O)(=O)c2ccc(OC(F)(F)F)cc2)cn1 [Example 388, 4-methyl-2-[(R)-3-[(6-propyl-pyridin-3-ylmethyl)-carbamoyl]-4-(4-trifluoromethoxy-benzenesulfonyl)-piperazin-1-yl]-thiazole-5-carboxylic acid] | 100 to 1000 | < 100
20 | Cc1nc(N2CCN(S(=O)(=O)c3ccc(OC(F)(F)F)cc3)[C@@H](C(=O)NCc3ccc(N4CCC4)nc3)C2)sc1C(=O)O [Example 389, 2-[(R)-3-[(6-azetidin-1-yl-pyridin-3-ylmethyl)-carbamoyl]-4-(4-trifluoromethoxy-benzenesulfonyl)-piperazin-1-yl]-4-methyl-thiazole-5-carboxylic acid] | 100 to 1000 | < 100
21 | Cc1nc(N2CCN(S(=O)(=O)c3ccc(OC(F)(F)F)cc3)[C@@H](C(=O)NCc3ccc(N4CCCC4)nc3)C2)sc1C(=O)O [Example 390, 4-methyl-2-[(R)-3-[(6-pyrrolidin-1-yl-pyridin-3-ylmethyl)-carbamoyl]-4-(4-trifluoromethoxy-benzenesulfonyl)-piperazin-1-yl]-thiazole-5-carboxylic acid] | 100 to 1000 | < 100
22 | CC(C)c1ccc(CNC(=O)[C@H]2CN(C(=O)CNCCC(=O)O)CCN2S(=O)(=O)c2ccc(C(F)(F)F)cc2)cc1 [Example 391, 3-{2-[(R)-3-(4-isopropyl-benzylcarbamoyl)-4-(4-trifluoromethyl-benzenesulfonyl)-piperazin-1-yl]-2-oxo-ethylamino}-propionic acid hydrochloride] | 100 to 1000 | 100 to 1000
23 | COc1ccc(CCNC(=O)[C@H]2CN(C(C)=O)CCN2S(=O)(=O)c2ccc(C(C)C)cc2)cc1 [Example 392, (R)-4-acetyl-1-(4-isopropyl-benzenesulfonyl)-piperazine-2-carboxylic acid [2-(4-methoxy-phenyl)-ethyl]-amide] | > 1000 | > 1000

Source: patent publication US8017612B2, “Piperazine compound and use thereof as a HCV polymerase inhibitor” (priority 2006, dated 2011)
